The record followed here is ChEMBL document CHEMBL1201862, “PubChem BioAssay data set” (2004).

The nature of assay [1]: A549 cell cytotoxicity, dose response, cytotoxicity control, plate reader, cherry-pick, antagonist series (AID 743412). In kind it is functional, cell-based.
The nature of assay [2]: toxicity toward HepG2 liver cells – cell-based, plate reader, cherry-pick, antagonist series, cytotoxicity control, dose response (AID 743416). In kind it is functional.
Assay [3] can be described thus: viability loss in HEK293 cells – cell-based, plate reader, cherry-picked samples, cytotoxicity control, dose response (AID 743446). In kind it is functional.
A short description of assay [4]: Luminescence-based cell-based high throughput dose response assay to identify activators of the DAF-12 from the parasite S. stercoralis (ssDAF-12). In kind it is functional.
Assay [5] has as its target T1, Oxysterols receptor LXR-beta (Homo sapiens, UniProt P55055).
T1 sequence (P55055 whole entry): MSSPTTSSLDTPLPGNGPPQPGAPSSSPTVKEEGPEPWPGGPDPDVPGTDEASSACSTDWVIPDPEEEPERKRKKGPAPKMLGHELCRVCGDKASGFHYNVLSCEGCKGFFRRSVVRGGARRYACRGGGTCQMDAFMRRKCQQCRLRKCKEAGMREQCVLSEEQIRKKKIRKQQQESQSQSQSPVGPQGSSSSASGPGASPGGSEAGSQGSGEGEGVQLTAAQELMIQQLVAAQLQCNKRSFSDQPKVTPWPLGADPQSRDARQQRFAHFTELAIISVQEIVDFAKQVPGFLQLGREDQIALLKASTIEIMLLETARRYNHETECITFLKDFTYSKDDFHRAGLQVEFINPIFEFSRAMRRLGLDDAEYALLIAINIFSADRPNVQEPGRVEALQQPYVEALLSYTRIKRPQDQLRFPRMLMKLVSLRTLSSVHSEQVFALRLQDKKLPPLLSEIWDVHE
As to the kind of experiment: LXR agonists, Gal4 luciferase reporter, dose response, counter-screen for ssDAF-12 agonist project, cell-based, luminescence, HEK293, S. stercoralis campaign (AID 720737). In kind it is functional. The conditions noted are these: read-out: IC50 (the source's name). Background: Reporter assays use an easily measured gene product as a stand-in for the process of interest.

Assay [6] is described as follows: viability of uninfected HEp-2 cells – cell-based, HTS, cytotoxicity control for RSV inhibitor project, dose response (AID 2410). The conditions noted are these: human respiratory syncytial virus. In kind it is functional.
Assay [7] is described as follows: potency of ADAM10 substrate cleavage blockers – biochemical, QFRET, dose response (AID 743254).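 Also: ADAM10 enzyme with the DM2 quenched FRET peptide as substrate; EDANS fluorescence gain as the protease cuts the substrate; inhibitor potency against ADAM10 proteolytic activity.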
Assay [8] concerns the target Disintegrin and metalloproteinase domain-containing protein 17 (Homo sapiens, UniProt P78536). As to the kind of experiment: inhibition of ADAM17 substrate cleavage – biochemical, quenched FRET substrate, counter-screen for ADAM10 exosite inhibitor project, dose response (AID 743253). Background: The purpose of a counterscreen is to sort out artefacts and off-target activity.

Assay [9] in a line: blockers of bursicon-stimulated LGR2 cAMP reporter – cell-based, HEK293, CRE-luciferase reporter, cherry pick, set 2, dose response (AID 743343).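 Also: transfected cells were stimulated with diluted bursicon conditioned medium after compound addition.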 In kind it is functional.
The next assay has as its target Large T antigen (Simian virus 40, UniProt P03070). In kind it is functional, Betapolyomavirus macacae.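 Also: Confirmatory-stage PubChem screen for compounds that inhibit SV40 T antigen.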
The nature of assay [10]: HIV-1 Vif–A3G interaction blockers – biochemical, TR-FRET, GST-Vif 1-94, biotin-A3G peptide, dose response retest, primary screen (AID 1117319).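 Also: TR-FRET signal of purified GST-Vif binding a biotinylated A3G peptide; inhibitors lower the FRET signal by blocking Vif and A3G binding.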 In kind it is functional.
A short description of assay [11]: blockers of HIV-1 envelope-mediated cell-cell fusion – cherry-pick, dose response (AID 652057). In kind it is functional, cell-based.
Assay [12] in a line: blockers of HIV-1 ZM109 envelope-driven cell-cell fusion – HeLa effector, CEM target cells, luciferase, cherry-pick, dose response (AID 652058).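 Also: luciferase signal from HIV-1 Env mediated cell-cell fusion of effector and target cells.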 In kind it is functional, cell-based.
The nature of assay [13]: HIV-1 AD8 envelope cell-cell fusion blockers – cherry-pick, dose response (AID 652062).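 Also: luciferase signal from cell-cell fusion driven by HIV-1 clade B AD8 Env; potency is for inhibitors of fusion seen as a drop in luminescence.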 In kind it is functional, cell-based.
A short description of assay [14]: growth inhibition of yeast DHODH-expressing 3D7 parasites – SYBR Green, dry powder samples, dose response (AID 1159570).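 Also: parasite growth measured after 72 hours of compound exposure.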 In kind it is functional, cell-based.
The nature of assay [15]: P. falciparum Dd2 growth inhibitors, dose response, SYBR Green, cherry-picked samples (AID 1159567). In kind it is functional, cell-based.
Assay [16] in a line: Dd2 malaria parasite growth inhibition potency – SYBR Green, dry powder samples, dose response (AID 1159566).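 Also: potency for growth inhibition with lower SYBR green DNA signal.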 In kind it is functional, cell-based.
A short description of assay [17]: growth inhibition of PfATP4-mutant resistant parasites – NITD609-resistant line, SYBR Green, dry powder, dose response (AID 1159571).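 Also: parasites synchronized at ring stage by sorbitol before testing.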 In kind it is functional, cell-based.
The next assay has as its target Paired box protein Pax-8 (Homo sapiens, UniProt Q06710). As to the kind of experiment: PAX8 transcriptional activity inhibition in RMG-I – RMG-I cells, luciferase, cherry-pick, dose response (AID 687027).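 Also: luciferase reporter driven by Pax8 target thyroperoxidase promoter measured by SteadyGlo luminescence.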 In kind it is functional, cell-based.
The nature of assay [18]: IGROV1 cell killing – plate reader, dry powder samples, PAX8 inhibitor project, dose response (AID 743043). The conditions noted are these: IGROV-1. In kind it is functional, cell-based.
The next assay deals with Estrogen receptor beta (Homo sapiens, UniProt Q92731).
For assay [19], the target named is T2, Voltage-gated N-type calcium channel alpha-1B subunit/Amyloid beta A4 precursor protein-binding family A member 1 (Homo sapiens, UniProt Q00975+Q02410). In kind it is protein assay.
Assay [20] deals with T2, Voltage-gated N-type calcium channel alpha-1B subunit/Amyloid beta A4 precursor protein-binding family A member 1. In kind it is protein assay. This is another data set of the same source.
Assay [21] concerns the target Induced myeloid leukemia cell differentiation protein Mcl-1 (Homo sapiens, UniProt Q07820). In kind it is functional.
Assay [22] deals with FAD-linked sulfhydryl oxidase ALR (Homo sapiens, UniProt P55789). As to the kind of experiment: ALR-catalysed DTT oxidation blockers – biochemical, H2O2 detection, luminescence, cherry-pick, dose response (AID 493248).
Assay [23] in a line: Trypanosoma cruzi growth suppression in host cells – NIH3T3 host cells, beta-gal luminescence, confirmation (AID 2044).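 Also: intracellular parasites grown in NIH/3T3 mouse fibroblasts as host cells; luminescent beta-galactosidase reporter signal from transgenic T. cruzi replicating inside host cells; inhibitors lower the luminescence signal.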 In kind it is functional, cell-based.
Assay [24] can be described thus: NIH3T3 cell viability loss – ATP luminescence, mouse fibroblasts, counter-screen, dose response (AID 2010).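 Also: cells exposed to compound for about 90 hours before reading.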 In kind it is functional, cell-based.

Active and inactive are the calls of the source.

Sequence of Disintegrin and metalloproteinase domain-containing protein 17 (P78536 whole entry, the tested form may be a part): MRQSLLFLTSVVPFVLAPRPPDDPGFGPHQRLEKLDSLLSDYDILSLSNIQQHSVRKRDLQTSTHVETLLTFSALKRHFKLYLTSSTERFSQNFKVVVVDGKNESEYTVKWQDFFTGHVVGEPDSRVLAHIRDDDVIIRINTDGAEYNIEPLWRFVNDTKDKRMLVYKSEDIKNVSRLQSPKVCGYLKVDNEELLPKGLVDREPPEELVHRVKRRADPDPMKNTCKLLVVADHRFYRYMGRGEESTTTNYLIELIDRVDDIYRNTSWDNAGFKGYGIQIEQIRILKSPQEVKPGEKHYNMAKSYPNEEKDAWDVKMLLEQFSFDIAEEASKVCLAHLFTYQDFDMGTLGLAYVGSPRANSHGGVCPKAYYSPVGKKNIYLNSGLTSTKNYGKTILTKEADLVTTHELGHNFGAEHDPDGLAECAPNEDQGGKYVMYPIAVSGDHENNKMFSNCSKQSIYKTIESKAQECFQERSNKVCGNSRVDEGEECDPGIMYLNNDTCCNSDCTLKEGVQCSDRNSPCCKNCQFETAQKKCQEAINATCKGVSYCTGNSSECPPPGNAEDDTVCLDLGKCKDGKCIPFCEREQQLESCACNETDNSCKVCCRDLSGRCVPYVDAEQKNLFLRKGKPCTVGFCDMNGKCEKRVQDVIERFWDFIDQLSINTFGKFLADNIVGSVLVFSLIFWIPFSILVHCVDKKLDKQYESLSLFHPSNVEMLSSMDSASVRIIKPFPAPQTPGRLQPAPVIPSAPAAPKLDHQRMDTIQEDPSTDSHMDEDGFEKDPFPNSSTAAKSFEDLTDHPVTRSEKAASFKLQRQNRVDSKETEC
Sequence of Estrogen receptor beta (Q92731 whole entry): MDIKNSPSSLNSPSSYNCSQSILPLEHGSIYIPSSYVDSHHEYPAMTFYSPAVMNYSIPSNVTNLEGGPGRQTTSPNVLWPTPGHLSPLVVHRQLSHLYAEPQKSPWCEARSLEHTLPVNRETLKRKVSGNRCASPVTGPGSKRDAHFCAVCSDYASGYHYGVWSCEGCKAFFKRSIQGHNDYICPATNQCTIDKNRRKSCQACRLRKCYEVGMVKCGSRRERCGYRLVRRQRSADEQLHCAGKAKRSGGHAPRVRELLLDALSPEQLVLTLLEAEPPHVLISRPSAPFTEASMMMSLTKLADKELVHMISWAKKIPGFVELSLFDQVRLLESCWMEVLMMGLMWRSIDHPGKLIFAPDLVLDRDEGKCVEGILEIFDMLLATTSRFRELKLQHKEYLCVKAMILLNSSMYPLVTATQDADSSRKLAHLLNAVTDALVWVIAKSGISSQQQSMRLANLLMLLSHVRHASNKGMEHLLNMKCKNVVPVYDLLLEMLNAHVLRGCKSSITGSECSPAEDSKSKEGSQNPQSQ
T2 sequence (Q00975 whole entry): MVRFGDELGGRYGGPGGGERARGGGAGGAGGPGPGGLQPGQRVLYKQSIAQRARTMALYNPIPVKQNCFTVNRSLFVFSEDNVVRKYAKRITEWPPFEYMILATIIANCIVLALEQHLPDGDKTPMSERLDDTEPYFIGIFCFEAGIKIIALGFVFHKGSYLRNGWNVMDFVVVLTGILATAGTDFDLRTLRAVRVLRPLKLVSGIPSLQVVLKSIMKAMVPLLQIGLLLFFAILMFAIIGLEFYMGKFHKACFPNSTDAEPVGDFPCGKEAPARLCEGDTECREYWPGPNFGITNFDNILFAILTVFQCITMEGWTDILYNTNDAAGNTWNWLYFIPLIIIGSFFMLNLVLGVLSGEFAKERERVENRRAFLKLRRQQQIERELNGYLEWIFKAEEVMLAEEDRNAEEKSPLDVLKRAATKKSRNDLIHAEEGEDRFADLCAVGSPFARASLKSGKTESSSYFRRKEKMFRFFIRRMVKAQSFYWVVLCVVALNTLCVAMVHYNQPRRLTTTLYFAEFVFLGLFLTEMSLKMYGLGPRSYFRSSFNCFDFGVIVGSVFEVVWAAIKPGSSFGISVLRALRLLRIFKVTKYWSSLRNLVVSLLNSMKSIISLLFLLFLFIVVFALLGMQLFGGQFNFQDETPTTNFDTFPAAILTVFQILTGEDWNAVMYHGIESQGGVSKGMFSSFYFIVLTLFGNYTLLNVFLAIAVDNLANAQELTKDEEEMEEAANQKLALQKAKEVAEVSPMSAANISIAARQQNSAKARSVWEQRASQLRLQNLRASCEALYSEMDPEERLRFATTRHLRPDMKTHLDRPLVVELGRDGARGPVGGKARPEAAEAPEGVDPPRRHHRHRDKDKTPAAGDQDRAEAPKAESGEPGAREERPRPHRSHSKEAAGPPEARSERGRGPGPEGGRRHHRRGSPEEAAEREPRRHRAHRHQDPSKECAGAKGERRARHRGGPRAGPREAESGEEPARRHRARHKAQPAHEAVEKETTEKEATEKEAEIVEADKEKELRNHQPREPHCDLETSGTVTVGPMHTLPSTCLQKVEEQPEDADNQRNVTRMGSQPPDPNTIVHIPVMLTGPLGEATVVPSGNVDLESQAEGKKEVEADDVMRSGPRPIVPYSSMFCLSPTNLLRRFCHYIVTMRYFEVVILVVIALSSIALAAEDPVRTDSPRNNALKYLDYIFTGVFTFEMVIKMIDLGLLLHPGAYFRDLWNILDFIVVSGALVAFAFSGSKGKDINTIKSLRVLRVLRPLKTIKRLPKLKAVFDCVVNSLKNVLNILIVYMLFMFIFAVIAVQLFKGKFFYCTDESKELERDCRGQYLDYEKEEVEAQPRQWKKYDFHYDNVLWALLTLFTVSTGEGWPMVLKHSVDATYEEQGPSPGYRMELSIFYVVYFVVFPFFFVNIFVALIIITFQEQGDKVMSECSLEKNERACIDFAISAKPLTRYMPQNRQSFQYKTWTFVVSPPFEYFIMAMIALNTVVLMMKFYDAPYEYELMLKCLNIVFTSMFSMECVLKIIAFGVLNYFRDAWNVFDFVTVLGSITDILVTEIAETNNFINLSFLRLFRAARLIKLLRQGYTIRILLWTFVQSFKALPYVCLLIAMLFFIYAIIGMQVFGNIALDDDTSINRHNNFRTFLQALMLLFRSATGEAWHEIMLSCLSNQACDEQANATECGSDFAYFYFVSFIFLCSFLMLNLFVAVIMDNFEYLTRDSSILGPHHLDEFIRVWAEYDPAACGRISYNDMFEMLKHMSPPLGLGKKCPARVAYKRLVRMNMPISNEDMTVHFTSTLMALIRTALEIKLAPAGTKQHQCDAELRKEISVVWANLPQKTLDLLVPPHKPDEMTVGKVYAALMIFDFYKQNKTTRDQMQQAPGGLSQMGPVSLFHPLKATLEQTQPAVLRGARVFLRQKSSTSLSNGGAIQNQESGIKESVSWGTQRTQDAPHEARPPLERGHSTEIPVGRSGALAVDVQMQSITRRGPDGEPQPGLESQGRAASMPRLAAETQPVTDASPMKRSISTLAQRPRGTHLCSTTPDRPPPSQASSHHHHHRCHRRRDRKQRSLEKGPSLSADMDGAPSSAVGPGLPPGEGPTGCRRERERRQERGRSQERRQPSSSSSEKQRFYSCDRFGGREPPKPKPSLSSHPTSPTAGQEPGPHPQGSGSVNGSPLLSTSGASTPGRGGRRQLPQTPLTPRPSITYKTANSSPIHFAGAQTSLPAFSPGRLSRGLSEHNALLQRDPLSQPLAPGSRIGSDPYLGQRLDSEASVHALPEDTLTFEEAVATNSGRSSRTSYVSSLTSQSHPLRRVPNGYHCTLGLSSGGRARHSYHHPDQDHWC
T2 sequence (Q02410 whole entry): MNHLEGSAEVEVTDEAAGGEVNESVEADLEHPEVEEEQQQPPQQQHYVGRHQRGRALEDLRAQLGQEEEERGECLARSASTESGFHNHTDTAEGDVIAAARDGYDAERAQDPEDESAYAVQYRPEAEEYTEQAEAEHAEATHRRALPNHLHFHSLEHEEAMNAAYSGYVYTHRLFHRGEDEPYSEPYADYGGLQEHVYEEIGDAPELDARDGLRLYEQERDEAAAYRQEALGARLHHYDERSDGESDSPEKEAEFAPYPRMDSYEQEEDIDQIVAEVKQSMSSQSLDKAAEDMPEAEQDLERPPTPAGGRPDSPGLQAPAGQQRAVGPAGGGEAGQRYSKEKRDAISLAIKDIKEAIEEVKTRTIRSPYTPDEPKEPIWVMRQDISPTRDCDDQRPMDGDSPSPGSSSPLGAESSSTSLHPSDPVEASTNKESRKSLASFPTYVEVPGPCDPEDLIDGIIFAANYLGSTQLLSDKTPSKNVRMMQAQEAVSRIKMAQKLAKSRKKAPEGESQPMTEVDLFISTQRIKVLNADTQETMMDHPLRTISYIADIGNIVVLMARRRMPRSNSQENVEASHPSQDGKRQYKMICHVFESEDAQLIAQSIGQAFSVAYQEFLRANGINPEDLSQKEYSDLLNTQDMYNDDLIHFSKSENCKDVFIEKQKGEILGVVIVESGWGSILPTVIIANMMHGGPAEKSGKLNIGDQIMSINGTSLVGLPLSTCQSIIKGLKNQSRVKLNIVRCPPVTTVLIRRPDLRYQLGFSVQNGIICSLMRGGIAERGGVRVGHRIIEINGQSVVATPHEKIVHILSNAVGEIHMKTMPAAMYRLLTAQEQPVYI
Sequence of FAD-linked sulfhydryl oxidase ALR (P55789 whole entry): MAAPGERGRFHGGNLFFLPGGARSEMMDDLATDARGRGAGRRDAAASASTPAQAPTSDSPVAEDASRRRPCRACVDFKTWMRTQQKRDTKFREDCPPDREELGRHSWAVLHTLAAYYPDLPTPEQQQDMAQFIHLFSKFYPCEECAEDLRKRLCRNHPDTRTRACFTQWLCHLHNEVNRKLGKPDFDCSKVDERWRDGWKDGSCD
Sequence of Induced myeloid leukemia cell differentiation protein Mcl-1 (Q07820 whole entry): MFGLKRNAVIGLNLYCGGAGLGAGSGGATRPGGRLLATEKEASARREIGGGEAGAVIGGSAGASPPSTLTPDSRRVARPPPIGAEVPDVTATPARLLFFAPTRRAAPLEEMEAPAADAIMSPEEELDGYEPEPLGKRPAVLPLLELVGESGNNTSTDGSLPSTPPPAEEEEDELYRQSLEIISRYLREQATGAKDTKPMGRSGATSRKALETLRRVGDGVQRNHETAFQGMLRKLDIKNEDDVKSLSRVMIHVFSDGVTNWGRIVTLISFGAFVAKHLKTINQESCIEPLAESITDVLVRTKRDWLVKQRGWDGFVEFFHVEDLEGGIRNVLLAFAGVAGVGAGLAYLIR

One may read the AC50 as the concentration at which the activity in the assay is half-maximal. Turning to `COc1ccc2cc(C#N)c(Nc3cccc(F)c3)nc2c1`, the AC50 in assay [1], in assay [2] and in assay [3] was > 52 µM (inactive) throughout.
Usually IC50 stands for the concentration needed to halve the response being measured. On to `Clc1cccc(-c2nc3c4ccccc4ccn3c2Cc2ccsc2)c1`, for which the IC50 in assay [4] was > 67.6 µM (inactive). Moreover, the EC50 in assay [5] is > 67.6 µM (inactive).
By CC50 is commonly meant the concentration at which the toxic effect on the cells reaches its halfway point. Consider `O=C(c1cccs1)N1N=C(c2ccccc2)CC1c1ccc(O)cc1` (configuration not stated), for which the CC50 in assay [6] is 24.2 µM (active). Further, the IC50 in assay [7] and in [8] was > 69.5 µM (inactive) throughout.
With `COCCCNc1nc2c(-c3ccc(C)cc3)nnn2c2ccccc12`, the IC50 in [4] was > 67.5 µM (inactive). Further, in [5], the EC50 was > 67.5 µM (inactive).
As for `O=C(CSc1nc2ccccc2[nH]1)Nc1nc(-c2cccc(Br)c2)cs1`, the IC50 in assay [7] and in assay [8] was > 69.5 µM (inactive) throughout. For the same compound, the concentration at half-maximal activity (AC50) in assay [1] was 24.2 µM (active); in [2] it was 38.4 µM (active); in [9], 35.4 µM (active).
In the case of `CCN(CC)c1ccc(NC(=O)c2ccco2)cc1`, the IC50 at Large T antigen was 5.01 µM (active); in [10], > 100 µM (active).
In the case of `C[C@@H](NC(=O)C[C@H]1C[C@@H]2c3cc(NS(=O)(=O)c4ccc(F)cc4)ccc3O[C@@H]2[C@H](CO)O1)c1ccccc1`, the AC50 was 1.12 µM (active) in assay [11]; 3.32 µM (active) in assay [12]; 31.7 µM (active) in assay [13]; 2.76 µM (active) in [14]; 2.22 µM (active) in assay [15]; 1.4 µM (active) in [16]. The half-maximal activity concentration (AC50) in assay [17] was 1.09 µM (active).
Consider `COc1ccc(-n2c(Cc3cccs3)nnc2SCC(=O)Nc2ccc(OCc3ccccc3)cc2)cc1`, for which the IC50 in assay [7] and in assay [8] was > 69.5 µM (inactive) in each case.
Consider `COc1ccc(NC(=O)c2ccc(-c3ccccc3)cc2)cc1NS(=O)(=O)c1ccc(F)cc1`, for which the IC50 in [7] and in assay [8] was > 69.5 µM (inactive) each time.
On to `CCS(=O)(=O)c1ccc2oc(Nc3cccc(OC)c3)nc2c1`, for which the half-maximal inhibitory concentration (IC50) in assay [10] was > 100 µM (active).
`C[C@@H]1CCCCO[C@@H](CN(C)Cc2ccc(C(F)(F)F)cc2)[C@H](C)CN([C@H](C)CO)C(=O)c2cc(NC(=O)c3ccccc3)ccc2O1`: the AC50 on Paired box protein Pax-8 is 9.55 µM (active); in assay [18], 40.9 µM (active).
Turning to `COc1ccc(C2CC(c3cccs3)=NN2C(=O)CN2CCCCC2)cc1` (configuration not stated), in [4], the IC50 is > 67.5 µM (inactive). Besides, the EC50 in assay [5] was > 67.5 µM (inactive).
For the compound `COc1ccc(Cl)cc1N(CC(=O)Nc1ccc2c(c1)OCO2)S(C)(=O)=O`, the IC50 in [10] was > 100 µM (active).
On to `Nc1[nH]n(-c2ccccc2)c(=O)c1/N=N/c1ccccc1[N+](=O)[O-]`, for which, on Estrogen receptor beta, the IC50 is > 50 µM (not active).
As to `O=[N+]([O-])c1ccc(-c2c[nH]c(S)n2)cc1`, the half-inhibitory concentration (IC50) in assay [19] was 11.3 µM (active); in assay [20] it was > 50 µM (inactive); in assay [21], 1.38 µM (active); in assay [10], > 100 µM (active). Further, the AC50 in assay [22] is 1.99 µM (active).
With `C[C@]12CCC(O)CC1=CCC1C2CC[C@]2(C)/C(=N\NC(N)=S)CCC12` (some centres not stated), the values for the EC50 (in assay [23]; in assay [24]; in the assay “cells”) were < 0.1 µM (active), > 60 µM (not active) and 0.103 µM (active), respectively.
For `O=C(Nc1ccon1)C12CC3CC(C1)CC(n1cnc([N+](=O)[O-])n1)(C3)C2` the same measures were < 0.1 µM (active), > 60 µM (not active) and 0.088 µM (active).
As to `CCN(CC)CCNC(=O)c1cc(Cl)c(N)cc1OC`, the IC50 against Estrogen receptor beta is given as > 50 µM (not active).
